Assay results as given in ChEMBL document CHEMBL1150207, “Cytotoxicities of some flavonoid analogues” (1991).
Converted amounts (≈) assume the structure as drawn.

Tests used:
Assay type in all cases: functional
[1] = system: MCF7; experiment: Cytotoxicity against human MCF7 cells after 6 days by MTT assay; settings: MCF7, 144 h, read-out: ED50 (the source's name)
[2] = system: HT-29; experiment: Cytotoxicity against human HT-29 cells after 6 days by MTT assay; settings: HT-29, 144 h, read-out: ED50 (the source's name)
[3] = system: A549; experiment: Cytotoxicity against human A549 cells after 6 days by MTT assay; settings: A549, 144 h, read-out: ED50 (the source's name)
[4] = system: Malme-3M; experiment: Cytotoxicity against human MALME-3M cells after 6 days by MTT assay; settings: 144 h, read-out: ED50 (the source's name)
[5] = system: SK-MEL; experiment: Cytotoxicity against human SK-MEL cells after 6 days by MTT assay; settings: 144 h, read-out: ED50 (the source's name)

Row | SMILES | EC50 [1] [µg/mL] | EC50 [2] [µg/mL] | EC50 [3] [µg/mL] | EC50 [4] [µg/mL] | EC50 [5] [µg/mL]
1 | COc1ccc2c(=O)cc(-c3cc(OC)c(OC)c(OC)c3)oc2c1 | > 25 | > 25 | > 25 | > 25 | > 25
2 | CC(=O)Nc1ccc(-c2cc(=O)c3c(OC(C)=O)cc(OC(C)=O)cc3o2)cc1 | 1.78 (≈ 4.5 µM) | 17.4 (≈ 44 µM) | 22 (≈ 55.6 µM) | > 25 | 14 (≈ 35.3 µM)
3 | COc1cc(-c2cc(=O)c3cc(O)ccc3o2)cc(OC)c1O[Si](C)(C)C(C)(C)C | 2.01 (≈ 4.69 µM) | 2.63 (≈ 6.14 µM) | 3.19 (≈ 7.44 µM) | 5.3 (≈ 12.4 µM) | 2.95 (≈ 6.88 µM)
4 | COC(=O)c1c(-c2ccc(O)cc2)oc2ccc(OC)cc2c1=O | > 25 | > 25 | > 25 | > 25 | 18.7 (≈ 57.3 µM)
5 | COC(=O)c1c(-c2ccc([N+](=O)[O-])cc2)oc2ccc(OC)cc2c1=O | > 25 | > 25 | > 25 | 24.1 (≈ 67.8 µM) | 8.18 (≈ 23 µM)
6 | O=c1cc(-c2ccc([N+](=O)[O-])cc2)oc2ccc(O)cc12 | > 25 | > 25 | 5.07 (≈ 17.9 µM) | > 25 | 21 (≈ 74.2 µM)
7 | O=c1cc(-c2ccc([N+](=O)[O-])cc2)oc2cc(O)cc(O)c12 | 6.9 (≈ 23.1 µM) | 3.34 (≈ 11.2 µM) | 4.19 (≈ 14 µM) | > 25 | 4.87 (≈ 16.3 µM)
8 | Nc1ccc(-c2cc(=O)c3cc(O)ccc3o2)cc1 | > 25 | 2.65 (≈ 10.5 µM) | 2.72 (≈ 10.7 µM) | > 25 | 2.03 (≈ 8.02 µM)
9 | COc1cc(-c2cc(=O)c3ccc(O)c(O)c3o2)cc(OC)c1OC | 1.11 (≈ 3.22 µM) | 3.66 (≈ 10.6 µM) | 5.27 (≈ 15.3 µM) | > 25 | > 25
10 | COc1cc(-c2cc(=O)c3c(O)cccc3o2)cc(OC)c1O | 0.51 (≈ 1.62 µM) | > 25 | 0.74 (≈ 2.35 µM) | > 25 | > 25
11 | COc1ccc(-c2oc3ccccc3c(=O)c2C(=O)O)cc1OC | > 25 | > 25 | > 25 | > 25 | > 25
12 | O=c1cc(-c2ccc([N+](=O)[O-])cc2)oc2cc(O)ccc12 | > 25 | 6.95 (≈ 24.5 µM) | 21.8 (≈ 76.9 µM) | > 25 | > 25
13 | COC(=O)c1c(-c2ccc(OC)c(OC)c2)oc2ccccc2c1=O | > 25 | > 25 | > 25 | > 25 | > 25
14 | O=c1cc(-c2ccc([N+](=O)[O-])cc2)oc2c(O)c(O)ccc12 | 4.69 (≈ 15.7 µM) | 3.46 (≈ 11.6 µM) | 2.56 (≈ 8.56 µM) | 3.61 (≈ 12.1 µM) | 3.29 (≈ 11 µM)
15 | COc1cc(-c2cc(=O)c3ccc(O)cc3o2)cc(OC)c1O | > 25 | 6.5 (≈ 20.7 µM) | > 25 | > 25 | > 25
16 | O=C(O)c1c(-c2ccc(Br)cc2)oc2ccccc2c1=O | > 25 | > 25 | > 25 | > 25 | > 25
17 | COC(=O)c1c(-c2cc(OC)c(OC)c(OC)c2)oc2ccccc2c1=O | > 25 | > 25 | > 25 | > 25 | > 25
18 | COc1cc(-c2cc(=O)c3ccc(O)cc3o2)cc(OC)c1O[Si](C)(C)C(C)(C)C | 4.47 (≈ 10.4 µM) | 1 (≈ 2.33 µM) | 5.3 (≈ 12.4 µM) | > 25 | > 25
19 | COc1cc(-c2cc(=O)c3cc(O)ccc3o2)cc(OC)c1O | > 25 | > 25 | > 25 | > 25 | 5.68 (≈ 18.1 µM)
20 | COc1cc(-c2cc(=O)c3ccc(O)c(O)c3o2)cc(OC)c1O | > 25 | 5.12 (≈ 15.5 µM) | > 25 | > 25 | 6.33 (≈ 19.2 µM)
21 | COc1cc(-c2cc(=O)c3cc(O)ccc3o2)cc(OC)c1OC | > 25 | 7.85 (≈ 23.9 µM) | 9.82 (≈ 29.9 µM) | > 25 | 5.87 (≈ 17.9 µM)
22 | COc1cc(-c2cc(=O)c3ccc(OC(C)=O)cc3o2)cc(OC)c1O[Si](C)(C)C(C)(C)C | 4.19 (≈ 8.9 µM) | 1.94 (≈ 4.12 µM) | 2.9 (≈ 6.16 µM) | 2.95 (≈ 6.27 µM) | 0.8 (≈ 1.7 µM)
23 | COC(=O)c1c(-c2ccc(OCc3ccccc3)cc2)oc2cc(OC)ccc2c1=O | 5.16 (≈ 12.4 µM) | 5.42 (≈ 13 µM) | 20.4 (≈ 49.1 µM) | > 25 | > 25
24 | COC(=O)c1c(-c2ccc(N)cc2)oc2ccccc2c1=O | > 25 | > 25 | > 25 | > 25 | > 25
25 | CC(C)(C)[Si](C)(C)Oc1ccc(-c2cc(=O)c3ccc(O)cc3o2)cc1 | 4.66 (≈ 12.6 µM) | 3.61 (≈ 9.8 µM) | 6.45 (≈ 17.5 µM) | > 10 | 5.64 (≈ 15.3 µM)
26 | COc1cc(-c2cc(=O)c3ccc(O)c(O)c3o2)cc(OC)c1O[Si](C)(C)C(C)(C)C | 0.31 (≈ 0.697 µM) | 0.34 (≈ 0.765 µM) | 3.31 (≈ 7.45 µM) | 0.2 (≈ 0.45 µM) | 0.11 (≈ 0.247 µM)

Row | SMILES | EC50 [1] [µg/mL] | EC50 [2] [µg/mL] | EC50 [3] [µg/mL] | EC50 [4] [µg/mL] | EC50 [5] [µg/mL]
27 | COc1ccc2oc(-c3ccc([N+](=O)[O-])cc3)c(C(=O)O)c(=O)c2c1 | 15.8 (≈ 46.4 µM) | > 25 | > 25 | > 25 | > 25
28 | COc1ccc2oc(-c3cc(OC)c(OC)c(OC)c3)cc(=O)c2c1 | > 25 | > 25 | > 25 | > 25 | > 25
29 | COC(=O)c1c(-c2cc(OC)cc(OC)c2)oc2ccccc2c1=O | > 25 | 6.99 (≈ 20.5 µM) | > 25 | > 25 | > 25
30 | COC(=O)c1c(-c2ccc(NC(C)=O)cc2)oc2cc(OC)ccc2c1=O | 9.19 (≈ 25 µM) | 8.21 (≈ 22.3 µM) | 9.76 (≈ 26.6 µM) | 9.26 (≈ 25.2 µM) | 15.9 (≈ 43.4 µM)
31 | COc1ccc(-c2oc3ccccc3c(=O)c2C(=O)O)cc1 | > 25 | > 25 | > 25 | > 25 | > 25
32 | COc1cc(-c2cc(=O)c3ccc(OC(C)=O)c(OC(C)=O)c3o2)cc(OC)c1O[Si](C)(C)C(C)(C)C | > 25 | > 25 | > 25 | 0.31 (≈ 0.586 µM) | 0.14 (≈ 0.265 µM)
33 | COc1cc(OC)cc(-c2oc3ccccc3c(=O)c2C(=O)O)c1 | > 25 | > 25 | > 25 | > 25 | > 25
34 | O=c1cc(-c2cccc(O)c2)oc2ccc(O)cc12 | > 25 | > 25 | > 25 | > 25 | > 25
35 | COC(=O)c1c(-c2ccc(OCc3ccccc3)cc2)oc2ccc(OC)cc2c1=O | > 25 | 15.6 (≈ 37.4 µM) | 22.1 (≈ 53 µM) | > 25 | 20.9 (≈ 50.1 µM)
36 | O=c1cc(-c2cccc(O)c2)oc2cccc(O)c12 | 6.93 (≈ 27.3 µM) | 3.47 (≈ 13.6 µM) | 3.24 (≈ 12.7 µM) | > 10 | 3.09 (≈ 12.2 µM)
37 | COC(=O)c1c(-c2ccc(O)cc2)oc2ccccc2c1=O | > 25 | > 25 | > 25 | > 25 | > 25
38 | O=c1cc(-c2cccc(O)c2)oc2cc(O)ccc12 | > 25 | > 25 | > 25 | > 25 | 5.11 (≈ 20.1 µM)
39 | O=c1cc(-c2cccc(O)c2)oc2c(O)c(O)ccc12 | 3.71 (≈ 13.7 µM) | 4.18 (≈ 15.5 µM) | 4.65 (≈ 17.2 µM) | 4.8 (≈ 17.8 µM) | 3.66 (≈ 13.5 µM)
40 | COC(=O)c1c(-c2ccc(Br)cc2)oc2ccccc2c1=O | > 25 | > 25 | > 25 | > 25 | > 25
41 | COc1cc(-c2cc(=O)c3ccc(O)cc3o2)cc(OC)c1OC | > 25 | > 25 | > 25 | > 25 | > 25
42 | COC(=O)c1c(-c2ccc(OC)cc2)oc2ccccc2c1=O | > 25 | > 25 | > 25 | > 25 | > 25
43 | COc1cc(-c2oc3ccccc3c(=O)c2C(=O)O)cc(OC)c1OC | > 25 | > 25 | > 25 | > 25 | > 25
44 | Nc1ccc(-c2cc(=O)c3ccc(O)cc3o2)cc1 | > 25 | 4.71 (≈ 18.6 µM) | 8.87 (≈ 35 µM) | > 25 | 6.59 (≈ 26 µM)
45 | COc1ccc2c(=O)c(C(=O)O)c(-c3ccc([N+](=O)[O-])cc3)oc2c1 | > 25 | > 25 | > 25 | > 25 | > 25
46 | Nc1ccc(-c2cc(=O)c3c(O)cc(O)cc3o2)cc1 | > 25 | 3.44 (≈ 12.8 µM) | 2.84 (≈ 10.5 µM) | > 25 | 3.86 (≈ 14.3 µM)
47 | CC(=O)Nc1ccc(-c2cc(=O)c3ccc(OC(C)=O)cc3o2)cc1 | 19.2 (≈ 56.9 µM) | 19.8 (≈ 58.7 µM) | 20.5 (≈ 60.9 µM) | > 25 | 16.9 (≈ 50.1 µM)
48 | O=C(O)c1c(-c2ccc([N+](=O)[O-])cc2)oc2ccccc2c1=O | > 25 | > 25 | > 25 | > 25 | > 25
49 | COC(=O)c1c(-c2ccc(OCc3ccccc3)cc2)oc2ccccc2c1=O | > 25 | > 25 | > 25 | > 25 | > 25
50 | COC(=O)c1c(-c2ccc([N+](=O)[O-])cc2)oc2ccccc2c1=O | > 25 | > 25 | > 25 | > 25 | > 25
51 | COc1ccc2oc(-c3ccc(O)cc3)c(C(=O)O)c(=O)c2c1 | > 25 | > 25 | > 25 | > 25 | > 25
52 | COc1cc(-c2cc(=O)c3ccc(OC(C)=O)cc3o2)cc(OC)c1O | > 25 | > 25 | > 25 | > 25 | > 25
